{
  "source": "patent US20230331739A1",
  "about": "“INDOLO HEPTAMYL OXIME ANALOG CRYSTAL AS PARP INHIBITOR AND METHOD FOR PREPARING SAME” (CHIA TAI TIANQING PHARMACEUTICAL GROUP CO., LTD., priority 2020, published 2023)",
  "key": {"[1]": {"target": "CYP3A4-M (Homo sapiens (Human), UniProt P08684)", "sequence (P08684 whole entry)": "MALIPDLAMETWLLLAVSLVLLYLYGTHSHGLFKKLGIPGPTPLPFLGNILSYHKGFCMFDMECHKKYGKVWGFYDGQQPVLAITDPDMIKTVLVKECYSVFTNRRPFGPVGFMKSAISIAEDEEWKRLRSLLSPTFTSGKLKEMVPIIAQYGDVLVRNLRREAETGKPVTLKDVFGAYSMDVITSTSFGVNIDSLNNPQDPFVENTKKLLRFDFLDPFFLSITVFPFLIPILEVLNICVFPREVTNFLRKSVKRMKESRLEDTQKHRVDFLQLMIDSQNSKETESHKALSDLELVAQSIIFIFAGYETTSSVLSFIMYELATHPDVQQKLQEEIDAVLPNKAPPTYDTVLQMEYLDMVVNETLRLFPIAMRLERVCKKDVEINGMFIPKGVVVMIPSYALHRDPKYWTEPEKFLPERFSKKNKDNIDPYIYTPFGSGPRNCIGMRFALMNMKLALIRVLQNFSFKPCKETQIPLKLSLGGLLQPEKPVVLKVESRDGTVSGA", "assay": "Inhibition against cytochrome P450 isoenzymes, CYP3A4-M", "format": "in vitro ADME", "conditions": "human liver microsomes", "method": "(§1) The inhibition of the test compound against different subtypes of the human cytochrome P450 isoenzyme was determined. The test compound, a standard inhibitor (100×final concentration) and a mixed substrate working solution were prepared; the microsomes frozen in a refrigerator at −80° C. were taken out and thawed. […]"}, "[2]": {"test_system": "MDA-MB-436 cells with BRCA1 mutation", "assay": "Anti-proliferation study on MDA-MB-436 cells (CellTiter-Glo)", "format": "cell-based", "conditions": "Homo sapiens, MDA-MB-436, 168 h; 7 days incubation", "method": "Materials: test compounds; RPMI-1640 medium; fetal bovine serum; penicillin/streptomycin antibiotic; MDA-MB-436 cells; Envision Multimode Plate Reader (PerkinElmer). MDA-MB-436 cells were seeded in a white 96-well plate by adding 80 μL of cell suspension (containing 3000 MDA-MB-436 cells) to each well. The cell plate was incubated in a CO2 incubator overnight. The test compounds were serially 5-fold diluted to the 8th concentration with a multichannel pipette, i.e., from 2 mM to 26 nM, in duplicate. 78 μL of medium was added to an intermediate plate, and the serially diluted compound was transferred to the intermediate plate at 2 μL per well. After being mixed well, the mixture was transferred to the cell plate at 20 μL per well. […] Another cell plate was provided for reading signal values on the day of compound addition and these signal values were used as Max values in data analysis. Promega CellTiter-Glo was added to the cell plate at 25 μL per well and the luminescence signals were stabilized by incubation for 10 min at room temperature. Readings were taken using a PerkinElmer Envision Multimode Plate Reader. […]"}, "[3]": {"assay": "Protein binding rate in plasma (equilibrium dialysis), SD rat", "format": "in vitro ADME", "conditions": "4 h dialysis", "method": "The protein binding rates of the compound disclosed herein in plasma of human, CD-1 mice and SD rats were determined. 796 μL of blank plasma was taken from human, CD-1 mice or SD rats, and 4 μL of test compound working solution (400 μM) or warfarin working solution (400 μM) was added to achieve a final concentration of 2 μM of both the test compound and the warfarin in the plasma sample. The samples were mixed well. The final concentration of organic phase DMSO was 0.5%; 50 μL of test compound and warfarin plasma sample was pipetted into a sample receiving plate (in triplicate), and a corresponding volume of blank plasma or buffer was immediately added such that the final volume in each sample well was 100 μL. The volume ratio of plasma to dialysis buffer was 1:1. […] All samples were subjected to LC/MS analysis after protein precipitation, and the protein binding rates and the recovery rates were calculated by the following formulas: protein unbinding rate (%)=100× drug concentration passing through dialysis membrane/drug concentration not passing through dialysate; protein binding rate (%)=100−protein unbinding rate (%); recovery rate (%)=100×(drug concentration passing through dialysis membrane+drug concentration not passing through dialysate)/total drug concentration before dialysis."}, "[4]": {"target": "CYP1A2 (Homo sapiens (Human), UniProt P05177)", "sequence (P05177 whole entry)": "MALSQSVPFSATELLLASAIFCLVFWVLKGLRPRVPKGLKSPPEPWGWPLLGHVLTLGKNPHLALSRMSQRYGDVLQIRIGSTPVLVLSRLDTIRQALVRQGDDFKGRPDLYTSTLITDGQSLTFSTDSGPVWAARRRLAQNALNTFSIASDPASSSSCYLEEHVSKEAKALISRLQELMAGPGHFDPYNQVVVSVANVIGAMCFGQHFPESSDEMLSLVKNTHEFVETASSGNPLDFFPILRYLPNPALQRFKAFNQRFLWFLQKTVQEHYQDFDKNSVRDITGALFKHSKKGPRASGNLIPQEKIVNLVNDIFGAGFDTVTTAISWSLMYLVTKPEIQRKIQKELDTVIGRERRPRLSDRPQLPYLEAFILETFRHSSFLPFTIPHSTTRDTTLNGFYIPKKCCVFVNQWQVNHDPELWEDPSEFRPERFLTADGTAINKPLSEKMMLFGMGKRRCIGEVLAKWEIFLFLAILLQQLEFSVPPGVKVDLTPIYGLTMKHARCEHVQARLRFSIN", "assay": "Inhibition against cytochrome P450 isoenzymes, CYP1A2", "format": "in vitro ADME", "conditions": "human liver microsomes", "method": "as §1"}},
  "data": [
    {"smiles": "C[C@]1(c2ccc(-c3[nH]c4cc(F)cc5c4c3CONC5=O)cc2)CCCN1", "note": "[Compound 1]", "values": [
      {"measurement": "IC50", "setting": "[1]", "value": 32.9, "unit": "µM"},
      {"measurement": "IC50", "setting": "[2]", "value": 0.0123, "unit": "µM"},
      {"measurement": "fraction unbound at 4 h, 2 μM", "setting": "[3]", "value": 0.077},
      {"measurement": "IC50", "setting": "[4]", "value": "> 50", "unit": "µM"}
    ]}
  ]
}
